Tested on: 966289-007-R4-J1-PDC complex spheroid viability
Assay: Anticancer human tumor 966289-007-R4-J1-PDC patient-derived pancreatic adenocarcinoma cell line growth inhibition [GQUAD]
Details: for IC50: curve of first compound; for viability, T/C: stronger effect = lower value
How it was run: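 Tumor cells were grown as complex spheroids with HUVEC endothelial cells and mesenchymal stem cells as stroma. G-quadruplex stabilizers were combined with targeted agents over half-log dilutions from near the clinical Cmax, or from 10 microM.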

[1] = second compound 0.0316 µM, first compound 0.0316 µM
[2] = second compound 0.0316 µM, first compound 0.316 µM
[3] = second compound 0.1 µM, first compound 0.0316 µM
[4] = second compound 0.1 µM, first compound 0.316 µM
[5] = second compound 0.316 µM, first compound 0.0316 µM
[6] = second compound 0.316 µM, first compound 0.316 µM
[7] = second compound 1 µM, first compound 0.0316 µM
[8] = second compound 1 µM, first compound 0.316 µM
[9] = second compound 3.16 µM, first compound 0.0316 µM
[10] = second compound 3.16 µM, first compound 0.316 µM
[11] = second compound 10 µM, first compound 0.0316 µM
[12] = second compound 10 µM, first compound 0.316 µM
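Also: spheroids exposed to the agents for seven days before readout.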
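For viability, T/C in this document: percent viability relative to DMSO vehicle control wells taken as 100%.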

Compound Cn1ncnc1[C@H]1c2n[nH]c(=O)c3cc(F)cc(c23)N[C@@H]1c1ccc(F)cc1 + Cc1[nH]c2ccc(F)cc2c1-c1nc2c3cccnc3c3ncccc3c2[nH]1 has an IC50 (second compound 0.0316 µM) of 101 nM, an IC50 (second compound 0.1 µM) of 89.8 nM and an IC50 (second compound 0.316 µM) of 105 nM. It also gave an IC50 (second compound 1 µM) of 127 nM, an IC50 (second compound 3.16 µM) of 76.3 nM and an IC50 (second compound 10 µM) of 63.6 nM. The viability, T/C (second compound 0.0316 µM, first compound 0.000999 µM) was 108%, the viability, T/C (second compound 0.0316 µM, first compound 0.00316 µM) was 95.8% and the viability, T/C (second compound 0.0316 µM, first compound 0.00999 µM) was 105%. For the same compound, the viability, T/C [1] was 96.8%, the viability, T/C (second compound 0.0316 µM, first compound 0.0999 µM) was 50.3% and the viability, T/C [2] was 21%. It also gave a viability, T/C (second compound 0.1 µM, first compound 0.000999 µM) of 101%, a viability, T/C (second compound 0.1 µM, first compound 0.00316 µM) of 99.4% and a viability, T/C (second compound 0.1 µM, first compound 0.00999 µM) of 106%. For the same compound, the viability, T/C [3] was 99.3%, the viability, T/C (second compound 0.1 µM, first compound 0.0999 µM) was 44.9% and the viability, T/C [4] was 20%. It also gave a viability, T/C (second compound 0.316 µM, first compound 0.000999 µM) of 101%, a viability, T/C (second compound 0.316 µM, first compound 0.00316 µM) of 107% and a viability, T/C (second compound 0.316 µM, first compound 0.00999 µM) of 108%. The viability, T/C [5] was 105%, the viability, T/C (second compound 0.316 µM, first compound 0.0999 µM) was 51.5% and the viability, T/C [6] was 18.6%. For the same compound, the viability, T/C (second compound 1 µM, first compound 0.000999 µM) was 101%, the viability, T/C (second compound 1 µM, first compound 0.00316 µM) was 103% and the viability, T/C (second compound 1 µM, first compound 0.00999 µM) was 112%. For the same compound, the viability, T/C [7] was 102%, the viability, T/C (second compound 1 µM, first compound 0.0999 µM) was 58.4% and the viability, T/C [8] was 18.6%. It also gave a viability, T/C (second compound 3.16 µM, first compound 0.000999 µM) of 105%, a viability, T/C (second compound 3.16 µM, first compound 0.00316 µM) of 105% and a viability, T/C (second compound 3.16 µM, first compound 0.00999 µM) of 110%. The viability, T/C [9] was 92.8%, the viability, T/C (second compound 3.16 µM, first compound 0.0999 µM) was 36.9% and the viability, T/C [10] was 12.1%. For the same compound, the viability, T/C (second compound 10 µM, first compound 0.000999 µM) was 106%, the viability, T/C (second compound 10 µM, first compound 0.00316 µM) was 105% and the viability, T/C (second compound 10 µM, first compound 0.00999 µM) was 109%. The viability, T/C [11] was 88.3%, the viability, T/C (second compound 10 µM, first compound 0.0999 µM) was 25.3% and the viability, T/C [12] was 11.6%.

Work on O=C(c1cc(Cc2n[nH]c(=O)c3ccccc23)ccc1F)N1CCN(C(=O)C2CC2)CC1 + Cc1[nH]c2ccc(F)cc2c1-c1nc2c3cccnc3c3ncccc3c2[nH]1 yielded an IC50 (second compound 0.0316 µM) of 4590 nM, an IC50 (second compound 0.1 µM) of 4390 nM and an IC50 (second compound 0.316 µM) of 3300 nM. It also gave an IC50 (second compound 1 µM) of 4380 nM, an IC50 (second compound 3.16 µM) of 2990 nM and an IC50 (second compound 10 µM) of 2790 nM. The viability, T/C [1] was 113%, the viability, T/C (second compound 0.0316 µM, first compound 0.1 µM) was 102% and the viability, T/C [2] was 111%. For the same compound, the viability, T/C (second compound 0.0316 µM, first compound 1 µM) was 101%, the viability, T/C (second compound 0.0316 µM, first compound 3.16 µM) was 68.6% and the viability, T/C (second compound 0.0316 µM, first compound 10 µM) was 11.5%. The viability, T/C [3] was 107%, the viability, T/C (second compound 0.1 µM, first compound 0.1 µM) was 103% and the viability, T/C [4] was 111%. For the same compound, the viability, T/C (second compound 0.1 µM, first compound 1 µM) was 106%, the viability, T/C (second compound 0.1 µM, first compound 3.16 µM) was 64.1% and the viability, T/C (second compound 0.1 µM, first compound 10 µM) was 14.8%. It also gave a viability, T/C [5] of 93%, a viability, T/C (second compound 0.316 µM, first compound 0.1 µM) of 107% and a viability, T/C [6] of 106%. For the same compound, the viability, T/C (second compound 0.316 µM, first compound 1 µM) was 108%, the viability, T/C (second compound 0.316 µM, first compound 3.16 µM) was 51.4% and the viability, T/C (second compound 0.316 µM, first compound 10 µM) was 15%. It also gave a viability, T/C [7] of 95.2%, a viability, T/C (second compound 1 µM, first compound 0.1 µM) of 101% and a viability, T/C [8] of 108%. The viability, T/C (second compound 1 µM, first compound 1 µM) was 109%, the viability, T/C (second compound 1 µM, first compound 3.16 µM) was 64.5% and the viability, T/C (second compound 1 µM, first compound 10 µM) was 13.1%. It also gave a viability, T/C [9] of 104%, a viability, T/C (second compound 3.16 µM, first compound 0.1 µM) of 110% and a viability, T/C [10] of 111%. For the same compound, the viability, T/C (second compound 3.16 µM, first compound 1 µM) was 105%, the viability, T/C (second compound 3.16 µM, first compound 3.16 µM) was 47.2% and the viability, T/C (second compound 3.16 µM, first compound 10 µM) was 7.55%. It also gave a viability, T/C [11] of 104%, a viability, T/C (second compound 10 µM, first compound 0.1 µM) of 103% and a viability, T/C [12] of 112%. For the same compound, the viability, T/C (second compound 10 µM, first compound 1 µM) was 99.8%, the viability, T/C (second compound 10 µM, first compound 3.16 µM) was 44% and the viability, T/C (second compound 10 µM, first compound 10 µM) was 4.64%.

From PubChem BioAssay AID2060488 (Molecular Pharmacology Branch, DTP, NCI, 2025)
